In patent publication US7396525B2, “Care/makeup compositions comprising a 2-alkylideneaminooxyacetamide compound for stimulating the growth of the hair or eyelashes and/or slowing loss thereof” (L'Oreal, priority 2003, dated 2008) one finds IC50 data, which are given here for 1 compound.

This assay deals with T1, PGF synthase (PGFS) (Homo sapiens, UniProt P42330).
T1 construct: made in house
T1 sequence (P42330 1-323): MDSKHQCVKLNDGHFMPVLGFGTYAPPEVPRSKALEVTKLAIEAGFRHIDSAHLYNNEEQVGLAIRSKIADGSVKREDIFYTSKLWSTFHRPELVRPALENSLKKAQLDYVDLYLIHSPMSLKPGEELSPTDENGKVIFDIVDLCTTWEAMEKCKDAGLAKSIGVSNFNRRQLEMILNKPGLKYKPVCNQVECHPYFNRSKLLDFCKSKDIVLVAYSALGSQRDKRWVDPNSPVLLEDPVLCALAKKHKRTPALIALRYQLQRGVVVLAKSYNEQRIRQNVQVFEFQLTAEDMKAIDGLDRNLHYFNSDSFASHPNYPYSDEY
Nature of the assay: Test on PGF synthase (spectrophotometric, 340 nm, 9,10-phenanthrenequinone/β-NADPH). The format is biochemical. The protocol:
The enzyme PGFS is obtained as disclosed in FR-A-02/05067, at a concentration of 0.5 mg/ml, in suspension in an appropriate medium, and is blocked at −80° C. For the requirements of the test, this suspension is defrosted and stored in ice.
Furthermore, a Tris 100 mM, pH=6.5, buffer comprising 20 μM of 9,10-phenanthrenequinone*(P2896, Sigma-Aldrich, L'isle D'Abeau Chesne, BP 701, 38297, Saint Quentin Fallavier) and 100 μM of β-NADPH (N1630, Sigma-Aldrich, L'isle D'Abeau Chesne, BP 701, 38297, Saint Quentin Fallavier) is prepared in a brown bottle (exclusion of light). *A mother solution assaying 1 mM is prepared in absolute ethanol and is brought to 40° C.; the bottle is placed in an ultrasonic bath to facilitate the dissolution of the product.
0.950 ml of this buffer (brought beforehand to 37° C.) is introduced into the cell of a spectrophotometer (Perkin-Elmer, Lambda 2) thermostatically controlled at 37° C., the wavelength of which for the measurement is adjusted to 340 nm. 0.05 ml of enzymatic suspension at 37° C. is introduced into the cell concomitantly with the recording (corresponding to a fall in optical density at 340 nm). The maximum rate of reaction is noted.

SMILES strings stand for the structures.

For the compound `C/C(=N/OCC(=O)Nc1ccccc1)c1cccs1` [Compound 1, N-Phenyl-2({[(1Z)-1-(thien-2-yl)-ethylidene]amino}oxy)acetamide], the IC50 was in the range of 50 to 100 µM.
